Laboratory results from patent publication US8389541B2, “Inhibitors of protein tyrosine kinase activity” (MethylGene Inc., priority 2007, dated 2013).
Read-outs that look alike come from different tables or passages of the source.

Legend:
[1] = target: T1, c-Met (Homo sapiens, UniProt P08581); assay: Inhibition of c-Met phosphorylation in MKN45 cells (direct ELISA); format: cell-based; conditions: 3 h treatment, read-out: CMET ELISA IN MKN45 IC50
T1 construct: endogenous in cells; host or cells: MKN45 gastric carcinoma cells
From the text: The following assay is used to determine inhibition of c-Met phosphorylation.
The c-Met receptor is expressed in numerous cancer cell lines derived from tumors of epithelial origin. In MKN45 gastric carcinoma cells the c-Met gene is amplified, resulting in several-fold overexpression of the receptor and its constitutive activation. For this reason constitutively high levels of ERK1/2 are also detected in these cells, independently of HGF-added stimulation (Smolen G A, Sordella R, Muir B, Mohapatra G, Barmettler A, Archibald H, et al. Amplification of MET may identify a subset of cancers with extreme sensitivity to the selective tyrosine kinase inhibitor PHA-665752. Proc Natl Acad Sci USA 2006). We have developed a sensitive method to follow c-Met phosphorylation in these cells. In previous studies with earlier generation c-Met inhibitors, we established that the IC50s for the inhibition of c-Met phosphorylation were identical using this novel ELISA approach and standard western blot procedure, with antibodies directed against the activating autocatalysis tyrosine residues of c-MET (Tyr Y1230-34-35).
Cell treatments: MKN45 cells are seeded into wells of 96-well plates at a density of 3×10^4 cells/well in RPMI medium supplemented with 10% FBS. HA-TPR-RON expressing 293T (clone 18) cells are seeded into wells of 96-well plates at a density of 3×10^4 cells/well in DMEM medium supplemented with 10% FBS. Cells are grown for 48 h prior to treatments with compounds of interest. Inhibitors are added to the medium in triplicate wells at the indicated doses. After 3 h of treatment, media is aspirated and cells are lysed by one freeze-thaw cycle in 50 μL/well hypotonic lysis buffer (25 mM HEPES pH 7.5, 10 mM NaCl with 1 mM 4-(2-aminoethyl)benzenesulfonyl fluoride hydrochloride, 200 μM sodium orthovanadate, 1 mM sodium fluoride, 10 μg/mL of leupeptin, 10 μg/mL of aprotinin/mL, 1 μg/mL of pepstatin and 50 μg/mL Na-p-tosyl-L-lysine chloromethyl ketone hydrochloride.
Detection of phosphorylated c-Met by direct ELISA: Lysate samples (5 μL) from wells of treatment plates are transferred to 80 μL of binding buffer (25 mM HEPES pH 7.5, 200 mM NaCl) in wells of high binding white polysterene 96-well plates (Corning). After an overnight protein binding incubation at 4° C., lysates are aspirated and wells are blocked for 1 h at 37° C. in TBST supplemented with 5% BSA. Plates are incubated with the primary antibodies anti-phospho-Tyrosine (Millipore, 4G10) diluted 1/15000 in TBST supplemented with 5% BSA for 1 h at room temperature. Plates are washed 3 times on a plate washer (SkanWasher, Molecular Devises), and incubated with the reporter antibody […] (Sigma) diluted 1/15000 in TBST supplemented with 5% BSA, for 1 h at room temperature. Plates are washed 3 times with TBST using on a plate washer and subsequently incubated with chemiluminescent substrate solution (ECL, Roche). Luminescence signal is captured on a Polar Star Optima apparatus (BMG LabTech).
Average values of the triplicate samples are used to prepare IC50 curves using a 4-parameter fit model. These curves are calculated using, for example, GraFit 5.0 software. For assay standardization purpose, an internal control is included on each experimental test plate.

[2] = target: T2, VEGF receptor KDR (Homo sapiens, UniProt P35968); assay: In vitro receptor tyrosine kinase assay (DELFIA), VEGF receptor KDR; format: biochemical; conditions: GST-VEGFR2 806-1356, 0.6 uM ATP; read-out: VEGFR IC50
T2 construct: made in house; host or cells: Sf9 cells (Spodoptera frugiperda), baculovirus
From the text: In the case of VEGF receptor KDR a 1.6-kb cDNA corresponding to the catalytic domain of VEGFR2 or KDR (Genbank accession number AF035121 amino acid 806 to 1356) is cloned into the Pst I site of the pDEST20 Gateway vector (Invitrogen) for the production of a GST-tagged version of that enzyme.
The GST-VEGFR2806-1356 protein is expressed in Sf9 cells (Spodoptera frugiperda) upon infection with recombinant baculovirus construct.
The supernatant is loaded onto a GST-agarose column (Sigma) equilibrated with PBS pH 7.3. Following a four column volume (CV) wash with PBS pH 7.3+1% Triton X-100 and 4 CV wash with buffer B (50 mM Tris pH 8.0, 20% glycerol and 100 mM NaCl), bound proteins are step eluted with 5 CV of buffer B supplemented with 5 mM DTT and 15 mM glutathion. […] Final GST-VEGFR2806-1356 protein preparations concentrations are about 0.7 mg/ml with purity approximating 70%.

[3] = test system: A549 cells; assay: Wound healing assay in A549 cells (HGF-stimulated); format: cell-based; conditions: Homo sapiens, last dose that inhibited gap closing by more than 25%, 24 h, read-out: A549 WOUND_HEALING IC50
Method: Wound healing assay in A549 cells. A549 cells (ATCC) are seeded in DMEM low glucose medium complemented with 10% FBS into 24-well plates at a density of 7.5×10^4 cells/well and grown to confluence (48 h). Inhibitors were added to the medium at a range of doses (0.00032-10 uM) for 3 h at which point a gap is introduced by scraping cells with a P1000 pipette tip. Cells are then stimulated to migrate by the addition of HGF (in the form of conditioned medium from 293T cells over-expressing the human HGF gene) and the culture is continued for 24 h. […] For the purpose of standardization, a control is carried on every assay plates.

[4] = target: recombinant human c-Met/HGF receptor (Homo sapiens, UniProt P08581); assay: In vitro receptor tyrosine kinase assay (DELFIA), c-Met/HGF receptor
[5] = test system: DU145 cells; assay: Scatter assay in DU145 cells (HGF-stimulated); format: cell-based; conditions: Homo sapiens, DU-145, last dose that created an inhibitory effect on scattering, 24 h, read-out: DU145 SCATT. INHIB IC50
Method: Scatter assays in DU145. The scatter assay is performed as described previously (Miura H, Nishimura K, Tsujimura A, Matsumiya K, Matsumoto K, Nakamura T, et al. Effects of hepatocyte growth factor on E-cadherin-mediated cell-cell adhesion in DU145 prostate cancer cells. Urology 2001; 58(6):1064-9) for DU145 prostate carcinoma cells with the indicated modifications. In brief, DU145 cells (ATCC) are seeded in 24-well plates at a density of 7×10^3 cells/well in MEM medium complemented with 10% FBS and cultured for 48 h, to allow the formation of small compact colonies of cells. Inhibitors are subsequently added at a range of doses (0.00032-10 uM) for 3 h. Cells are then stimulated to migrate by the addition of HGF (in the form of conditioned medium from 293T cells over-expressing the human HGF gene) and the culture is continued for another 24 h. The IC50 values is defined as the last dose that created an inhibitory effect on scattering. For the purpose of standardization a control is carried on every test plates for the DU145 scattering assays.

[6] = test system: MKN45 tumor; assay: In vivo solid tumor disease model, MKN45; set-up: species or system mice; conditions: Mus musculus, MKN-45, po, read-out: Tumor Growth Inhibition (%); for inhibition in vivo at 20 mg/kg: MKN45, 20 mg/kg orally daily; for inhibition in vivo at 40 mg/kg: 336 h, MKN45, 40 mg/kg orally daily, 14 days

T1 sequence (P08581 25-1390): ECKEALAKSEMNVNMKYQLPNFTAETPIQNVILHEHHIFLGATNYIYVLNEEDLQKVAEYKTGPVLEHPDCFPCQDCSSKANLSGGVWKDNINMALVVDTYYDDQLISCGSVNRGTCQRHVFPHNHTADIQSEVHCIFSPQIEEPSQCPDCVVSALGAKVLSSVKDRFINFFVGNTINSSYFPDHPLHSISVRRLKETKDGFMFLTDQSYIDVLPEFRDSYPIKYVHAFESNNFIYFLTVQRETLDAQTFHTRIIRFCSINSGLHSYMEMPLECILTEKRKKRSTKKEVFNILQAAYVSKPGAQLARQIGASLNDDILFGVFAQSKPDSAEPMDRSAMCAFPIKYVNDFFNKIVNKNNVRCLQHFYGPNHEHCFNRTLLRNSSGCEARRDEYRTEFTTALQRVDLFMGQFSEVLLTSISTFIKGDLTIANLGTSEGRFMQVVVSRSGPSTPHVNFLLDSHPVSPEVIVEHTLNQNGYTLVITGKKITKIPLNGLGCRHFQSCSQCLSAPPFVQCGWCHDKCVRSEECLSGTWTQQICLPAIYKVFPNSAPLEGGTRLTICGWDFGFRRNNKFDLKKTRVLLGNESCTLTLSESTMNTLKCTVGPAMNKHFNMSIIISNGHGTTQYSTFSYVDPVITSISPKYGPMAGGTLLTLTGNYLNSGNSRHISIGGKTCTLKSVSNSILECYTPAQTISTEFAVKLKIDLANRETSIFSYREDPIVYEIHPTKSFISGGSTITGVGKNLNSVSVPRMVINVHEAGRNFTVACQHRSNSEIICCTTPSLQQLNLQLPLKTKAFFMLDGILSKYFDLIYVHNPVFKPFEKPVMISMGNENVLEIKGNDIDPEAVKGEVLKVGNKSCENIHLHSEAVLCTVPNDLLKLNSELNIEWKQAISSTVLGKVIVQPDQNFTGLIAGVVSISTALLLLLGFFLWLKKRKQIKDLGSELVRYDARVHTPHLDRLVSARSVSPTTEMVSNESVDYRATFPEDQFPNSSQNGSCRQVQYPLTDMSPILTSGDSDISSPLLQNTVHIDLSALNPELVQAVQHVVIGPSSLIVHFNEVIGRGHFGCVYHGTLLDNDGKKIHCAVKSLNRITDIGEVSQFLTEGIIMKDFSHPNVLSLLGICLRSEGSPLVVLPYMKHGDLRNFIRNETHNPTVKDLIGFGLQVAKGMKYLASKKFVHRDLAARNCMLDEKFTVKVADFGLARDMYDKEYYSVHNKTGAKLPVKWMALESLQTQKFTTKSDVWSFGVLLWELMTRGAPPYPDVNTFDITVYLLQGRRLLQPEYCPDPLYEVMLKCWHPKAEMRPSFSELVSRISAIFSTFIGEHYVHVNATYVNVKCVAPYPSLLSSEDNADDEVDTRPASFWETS
Sequence of recombinant human c-Met/HGF receptor (P08581 1078-1337): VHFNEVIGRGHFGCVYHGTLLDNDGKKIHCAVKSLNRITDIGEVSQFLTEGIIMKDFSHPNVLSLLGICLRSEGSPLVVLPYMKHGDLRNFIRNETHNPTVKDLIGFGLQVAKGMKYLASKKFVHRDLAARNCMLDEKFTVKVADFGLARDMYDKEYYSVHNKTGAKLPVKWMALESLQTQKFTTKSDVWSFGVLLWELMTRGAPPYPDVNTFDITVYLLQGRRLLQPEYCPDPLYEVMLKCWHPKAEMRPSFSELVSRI
T2 sequence (P35968 806-1356): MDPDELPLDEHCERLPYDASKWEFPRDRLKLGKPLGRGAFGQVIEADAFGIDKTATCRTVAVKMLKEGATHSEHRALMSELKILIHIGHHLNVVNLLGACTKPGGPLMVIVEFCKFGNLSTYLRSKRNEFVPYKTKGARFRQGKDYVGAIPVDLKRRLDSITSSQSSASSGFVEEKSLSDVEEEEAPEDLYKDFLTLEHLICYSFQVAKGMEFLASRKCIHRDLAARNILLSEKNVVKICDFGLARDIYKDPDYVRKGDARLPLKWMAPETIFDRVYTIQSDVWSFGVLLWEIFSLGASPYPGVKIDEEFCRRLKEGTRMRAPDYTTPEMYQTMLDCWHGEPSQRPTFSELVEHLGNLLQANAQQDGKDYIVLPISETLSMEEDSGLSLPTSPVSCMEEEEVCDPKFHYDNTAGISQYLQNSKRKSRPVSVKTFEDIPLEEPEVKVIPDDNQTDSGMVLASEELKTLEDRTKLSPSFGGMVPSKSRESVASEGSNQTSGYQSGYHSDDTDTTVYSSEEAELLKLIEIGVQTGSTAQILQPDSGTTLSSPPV

| SMILES | IC50 [1] [nM] | IC50 [2] [nM] | IC50 [3] [nM] | IC50 [4] [nM] | IC50 [5] [nM] | inhibition in vivo at 20 mg/kg ([6]; 168 h, 7 days) [%] | inhibition in vivo at 20 mg/kg ([6]; 192 h, 8 days) [%] | inhibition in vivo at 40 mg/kg [6] [%] | inhibition in vivo at 20 mg/kg ([6]; 312 h, 13 days) [%] |
| --- | --- | --- | --- | --- | --- | --- | --- | --- | --- |
| COCCNCc1ccc(-c2cc3nccc(Oc4ccc(NC(=S)NC(=O)Cc5ccccc5)cc4F)c3s2)cn1 [drawing 308] | < 250 | 250 to 500 | 250 to 500 | < 250 | 250 to 500 | – | – | – | – |
| COCCNCc1ccc(-c2cc3nccc(Oc4ccc(NC(=S)NC(=O)Cc5ccc(F)cc5)cc4F)c3s2)cn1 [drawing 309] | < 250 | < 250 | 250 to 500 | < 250 | < 250 | – | – | – | – |
| COCCNCc1ccc(-c2cc3nccc(Oc4ccc(NC(=S)NC(=O)Cc5ccccc5OC)cc4F)c3s2)nc1 [drawing 311] | < 250 | < 250 | 250 to 500 | < 250 | 250 to 500 | – | – | – | – |
| CS(=O)(=O)CCNCc1ccc(-c2cc3nccc(Oc4ccc(NC(=O)C5(C(=O)Nc6ccccc6)CC5)cc4F)c3s2)cc1 [drawing 340] | < 250 | < 250 | < 250 | < 250 | < 250 | – | – | – | – |
| COCCNCc1ccc(-c2cc3nccc(Oc4ccc(NC(=O)CC(=O)N(C)c5ccccc5)cc4F)c3s2)nc1 [drawing 346] | < 250 | < 250 | 250 to 500 | < 250 | 250 to 500 | – | – | – | – |
| COCCNCc1ccc(-c2cc3nccc(Oc4ccc(NC(=O)C5(C(=O)Nc6ccccc6)CC5)cc4F)c3s2)nc1 [drawing 350] | < 250 | < 250 | < 250 | < 250 | < 250 | – | – | – | – |
| COC[C@H](C)NCc1cccc(-c2cc3nccc(Oc4ccc(NC(=S)NC(=O)Cc5ccc(F)cc5)cc4F)c3s2)c1 [drawing 361] | – | – | – | – | – | 25 to 50 | – | – | – |
| COCCNCc1ccc(-c2cc3nccc(Oc4ccc(NC(=S)NC(=O)Cc5ccccc5)cc4F)c3s2)cn1 [drawing 362] | – | – | – | – | – | – | < 25 | – | – |
| COCCNCc1ccc(-c2cc3nccc(Oc4ccc(NC(=S)NC(=O)Cc5ccc(F)cc5)cc4F)c3s2)cn1 [drawing 363] | – | – | – | – | – | – | 25 to 50 | – | – |
| COCCNCc1ccc(-c2cc3nccc(Oc4ccc(NC(=O)C5(C(=O)Nc6ccccc6)CC5)cc4F)c3s2)cc1 [drawing 364] | – | – | – | – | – | – | ≥ 75 | – | – |
| COCCNCc1ccc(-c2cc3nccc(Oc4ccc(NC(=S)NC(=O)Cc5ccccc5OC)cc4F)c3s2)nc1 [drawing 365] | – | – | – | – | – | – | 25 to 50 | – | – |
| COCCNCCn1cc(-c2cc3nccc(Oc4ccc(NC(=O)CC(=O)N(C)c5ccccc5)cc4F)c3s2)cn1 [drawing 369] | – | – | – | – | – | – | – | < 25 | – |
| COCCNCc1cnc(-c2cc3nccc(Oc4ccc(NC(=O)CC(=O)Nc5ccccc5)cc4F)c3s2)n1C [drawing 372] | – | – | – | – | – | – | – | 25 to 50 | 25 to 50 |

The next lines start with results.

| IC50 [1] [nM] | IC50 [2] [nM] | IC50 [3] [nM] | IC50 [4] [nM] | IC50 [5] [nM] | SMILES | inhibition in vivo at 20 mg/kg ([6]; 168 h, 7 days) [%] | inhibition in vivo at 20 mg/kg ([6]; 192 h, 8 days) [%] | inhibition in vivo at 40 mg/kg [6] [%] | inhibition in vivo at 20 mg/kg ([6]; 312 h, 13 days) [%] |
| --- | --- | --- | --- | --- | --- | --- | --- | --- | --- |
| < 250 | < 250 | < 250 | < 250 | < 250 | COCCNCc1ccc(-c2cc3nccc(Oc4ccc(NC(=O)C5(C(=O)Nc6ccccc6)CC5)cc4F)c3s2)cc1 [drawing 310] | – | – | – | – |
| < 250 | < 250 | 250 to 500 | < 250 | 250 to 500 | COCCNCCn1cnc(-c2cc3nccc(Oc4ccc(NC(=S)NC(=O)Cc5ccc(F)cc5)cc4F)c3s2)c1 [drawing 318] | – | – | – | – |
| < 250 | < 250 | 250 to 500 | < 250 | 250 to 500 | COCCNCCn1cc(-c2cc3nccc(Oc4ccc(NC(=S)NC(=O)Cc5ccccc5)cc4F)c3s2)cn1 [drawing 321] | – | – | – | – |
| < 250 | < 250 | 250 to 500 | < 250 | 250 to 500 | COCCNCc1ccc(-c2cc3nccc(Oc4ccc(NC(=O)C5(C(=O)Nc6ccccc6)CC5)cc4F)c3s2)o1 [drawing 326] | – | – | – | – |
| < 250 | < 250 | < 250 | < 250 | 250 to 500 | COCCNCCn1cc(-c2cc3nccc(Oc4ccc(NC(=O)CC(=O)N(C)c5ccccc5)cc4F)c3s2)cn1 [drawing 334] | – | – | – | – |
| < 250 | < 250 | < 250 | < 250 | < 250 | COCCNCc1cnc(-c2cc3nccc(Oc4ccc(NC(=S)NC(=O)Cc5ccccc5)cc4F)c3s2)n1C [drawing 342] | – | – | – | – |
| < 250 | < 250 | 250 to 500 | < 250 | 250 to 500 | COCCNCc1cnc(-c2cc3nccc(Oc4ccc(NC(=O)CC(=O)Nc5ccccc5)cc4F)c3s2)n1C [drawing 345] | – | – | – | – |
| < 250 | < 250 | 250 to 500 | < 250 | 250 to 500 | CN(C(=O)CC(=O)Nc1ccc(Oc2ccnc3cc(-c4ccc(CNCCS(C)(=O)=O)cc4)sc23)c(F)c1)c1ccccc1 [drawing 347] | – | – | – | – |
| < 250 | < 250 | 250 to 500 | < 250 | 250 to 500 | COCCNCc1ccc(-c2cc3nccc(Oc4ccc(NC(=O)CC(=O)N(C)c5ccc(F)cc5)cc4F)c3s2)nc1 [drawing 352] | – | – | – | – |
